According to patent US20240279241A1, “PYRIDO[4,3-D]PYRIMIDINE COMPOUNDS CAPABLE OF INHIBITING KRAS MUTANT PROTEINS” (Redx Pharma PLC, priority 2021, published 2024):
Like-named read-outs stand apart in the source and are kept apart here.

Key:
[1] = molecular target: T1, KRAS G12D (Homo sapiens, UniProt P01116, G12D); test: HTRF nucleotide exchange assay (NEA), KRAS G12D; assay type: biochemical; settings: recombinant human KRAS G12D aa1-188, 2 nM; lowest class = % inhibition at 10 μM
T1 construct: Recombinant human RAS protein (2 nM)
Experimental: (§1) The capacity of compounds to bind KRAS G12D, other KRAS mutants and wildtype RAS isoforms was quantified using a HTRF nucleotide exchange assay. Recombinant human RAS protein (2 nM; aa1-188 KRAS WT, HRAS WT, NRAS WT, or KRAS containing the containing the G12D, G13D or Q61H amino acid substitutions, or 4 nM KRAS; aa1-188 containing the G12V, G12C, G12A or G12S amino acid substitution, an N-terminal 6×His-tag and leader sequence), and 2 nM Europium-labeled anti-6×His antibody were mixed in assay buffer (10 mM HEPES pH7.3, 150 mM NaCl, 5 mM MgCl2, 0.05% BSA, 0.0025% NP-40 and 100 mM KF) with various concentrations of compound in a 384-well plate and a volume of 5 uL. After a 60-minute incubation at room temperature, 5 ul of 200 nM EDA-GTP-DY647P1 (diluted in assay buffer) was added to the plate. Following 30-minute incubation at room temperature, time-resolved fluorescence was measured on a PerkinElmer Envision plate reader. DMSO (0.3%) and unlabeled […] (1 μM) or equivalent tool compound were used to generate the Max and Min assay signals, respectively. Data was analysed using a four-parameter logistic model to calculate IC50 values, with at least two independent replicates were performed for each compound.

[2] = molecular target: T2, KRAS WT (Homo sapiens, UniProt P01116); test: HTRF nucleotide exchange assay (NEA), KRAS WT; assay type: biochemical
T2 construct: Recombinant human RAS protein (2 nM); aa1-188 KRAS WT
Experimental: as §1

[3] = recombinant human KRAS WT aa1-188, 2 nM, lowest class = % inhibition at 10 μM

T1 sequence (P01116 1-188 isoform P01116-2 G12D): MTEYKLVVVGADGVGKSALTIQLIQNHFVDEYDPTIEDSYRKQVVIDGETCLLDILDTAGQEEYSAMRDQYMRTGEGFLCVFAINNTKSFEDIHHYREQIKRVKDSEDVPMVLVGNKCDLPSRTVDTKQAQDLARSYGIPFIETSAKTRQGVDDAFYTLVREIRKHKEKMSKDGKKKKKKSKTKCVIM
T2 sequence (P01116 1-188 isoform P01116-2): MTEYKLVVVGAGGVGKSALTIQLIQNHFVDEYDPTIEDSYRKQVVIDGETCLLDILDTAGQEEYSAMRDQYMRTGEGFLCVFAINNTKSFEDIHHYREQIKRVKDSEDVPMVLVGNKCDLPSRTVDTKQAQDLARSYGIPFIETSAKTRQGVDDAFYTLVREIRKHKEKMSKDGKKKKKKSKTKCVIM

## CN(C)C(=O)CCNc1nc(OCC23CCCN2CCC3)nc2c(F)c(-c3cc(O)cc4ccccc34)ncc12 [Example 40, 3-[[8-fluoro-2-(1,2,3,5,6,7-hexahydropyrrolizin-8-ylmethoxy)-7-(3-hydroxy-1-naphthyl)pyrido[4,3-d]pyrimidin-4-yl]amino]-N,N-dimethyl-propanamide]
[1]
  IC50: 100 to 10000 nM
[2]
  IC50: 0.1 to 10 µM

## COC1CCCN(c2nc(OCC34CCCN3CCC4)nc3c(F)c(-c4cc(O)cc5ccccc45)ncc23)C1 (stereo not drawn) [Example 42, 4-[8-fluoro-2-(1,2,3,5,6,7-hexahydropyrrolizin-8-ylmethoxy)-4-(3-methoxy-1-piperidyl)pyrido[4,3-d]pyrimidin-7-yl]naphthalen-2-ol]
[1]
  IC50: 100 to 10000 nM
[2]
  IC50: 0.1 to 10 µM

## COCC(C)(C)CNc1nc(OCC23CCCN2CCC3)nc2c(F)c(-c3cc(O)cc4ccccc34)ncc12 [Example 43, 4-[8-fluoro-2-(1,2,3,5,6,7-hexahydropyrrolizin-8-ylmethoxy)-4-[(3-methoxy-2,2-dimethyl-propyl)amino]pyrido [4,3-d]pyrimidin-7-yl]naphthalen-2-ol]
[1]
  IC50: 100 to 10000 nM
[2]
  IC50: 0.1 to 10 µM

## COCCC(C)Nc1nc(OCC23CCCN2CCC3)nc2c(F)c(-c3cc(O)cc4ccccc34)ncc12 (stereo not drawn) [Example 44, 4-[8-fluoro-2-(1,2,3,5,6,7-hexahydropyrrolizin-8-ylmethoxy)-4-[(3-methoxy-1-methyl-propyl)amino]pyrido [4,3-d]pyrimidin-7-yl]naphthalen-2-ol]
[1]
  IC50: 100 to 10000 nM
[2]
  IC50: 0.1 to 10 µM

## Oc1cc(-c2ncc3c(N4CCC5(CCOC5)C4)nc(OCC45CCCN4CCC5)nc3c2F)c2ccccc2c1 (stereo not drawn) [Example 48, 4-[8-fluoro-2-(1,2,3,5,6,7-hexahydropyrrolizin-8-ylmethoxy)-4-(2-oxa-7-azaspiro[4.4]nonan-7-yl)pyrido [4,3-d]pyrimidin-7-yl]naphthalen-2-ol]
[1]
  IC50: 100 to 10000 nM
[2]
  IC50: 0.1 to 10 µM

## Oc1cc(-c2ncc3c(N4CC5COCC(C5)C4)nc(OCC45CCCN4CCC5)nc3c2F)c2ccccc2c1 [Example 49, 4-[8-fluoro-2-(1,2,3,5,6,7-hexahydropyrrolizin-8-ylmethoxy)-4-(3-oxa-7-azabicyclo[3.3.1]nonan-7-yl)pyrido[4,3-d]pyrimidin-7-yl]naphthalen-2-ol]
[1]
  IC50: 100 to 10000 nM
[2]
  IC50: 0.1 to 10 µM

## Oc1cc(-c2ncc3c(N4CC5(CCCOC5)C4)nc(OCC45CCCN4CCC5)nc3c2F)c2ccccc2c1 [Example 53, 4-[8-fluoro-2-(1,2,3,5,6,7-hexahydropyrrolizin-8-ylmethoxy)-4-(6-oxa-2-azaspiro[3.5]nonan-2-yl)pyrido[4,3-d]pyrimidin-7-yl]naphthalen-2-ol]
[1]
  IC50: 100 to 10000 nM
[2]
  IC50: 0.1 to 10 µM

## COC(C)(C)CCNc1nc(OCC23CCCN2CCC3)nc2c(F)c(-c3cc(O)cc4ccccc34)ncc12 [Example 54, 4-[8-fluoro-2-(1,2,3,5,6,7-hexahydropyrrolizin-8-ylmethoxy)-4-[(3-methoxy-3-methyl-butyl)amino]pyrido [4,3-d]pyrimidin-7-yl]naphthalen-2-ol]
[1]
  IC50: 100 to 10000 nM
[2]
  IC50: 0.1 to 10 µM

## Oc1cc(-c2ncc3c(N4CCn5nccc5C4)nc(OCC45CCCN4CCC5)nc3c2F)c2ccccc2c1 [Example 57, 4-[4-(6,7-dihydro-4H-pyrazolo[1,5-a]pyrazin-5-yl)-8-fluoro-2-(1,2,3,5,6,7-hexahydropyrrolizin-8-ylmethoxy)pyrido [4,3-d]pyrimidin-7-yl]naphthalen-2-ol]
[1]
  IC50: 100 to 10000 nM
[2]
  IC50: 0.1 to 10 µM

## Oc1cc(-c2ncc3c(N4CCn5cncc5C4)nc(OCC45CCCN4CCC5)nc3c2F)c2ccccc2c1 [Example 58, 4-[4-(6,8-dihydro-5H-imidazo[1,5-a]pyrazin-7-yl)-8-fluoro-2-(1,2,3,5,6,7-hexahydropyrrolizin-8-ylmethoxy)pyrido [4,3-d]pyrimidin-7-yl]naphthalen-2-ol]
[1]
  IC50: 100 to 10000 nM
[2]
  IC50: 0.1 to 10 µM

## Oc1cc(-c2ncc3c(N4CCn5ccnc5C4)nc(OCC45CCCN4CCC5)nc3c2F)c2ccccc2c1 [Example 60, 4-[4-(6,8-dihydro-5H-imidazo[1,2-a]pyrazin-7-yl)-8-fluoro-2-(1,2,3,5,6,7-hexahydropyrrolizin-8-ylmethoxy)pyrido [4,3-d]pyrimidin-7-yl]naphthalen-2-ol]
[1]
  IC50: 100 to 10000 nM
[2]
  IC50: 0.1 to 10 µM

## Oc1cc(-c2ncc3c(N4CCc5[nH]ncc5C4)nc(OCC45CCCN4CCC5)nc3c2F)c2ccccc2c1 [Example 61, 4-[8-fluoro-2-(1,2,3,5,6,7-hexahydropyrrolizin-8-ylmethoxy)-4-(1,4,6,7-tetrahydropyrazolo [4,3-c]pyridin-5-yl)pyrido[4,3-d]pyrimidin-7-yl]naphthalen-2-ol]
[1]
  IC50: 100 to 10000 nM
[2]
  IC50: 0.1 to 10 µM

## Oc1cc(-c2ncc3c(N4CCc5cn[nH]c5C4)nc(OCC45CCCN4CCC5)nc3c2F)c2ccccc2c1 [Example 62, 4-[8-fluoro-2-(1,2,3,5,6,7-hexahydropyrrolizin-8-ylmethoxy)-4-(1,4,5,7-tetrahydropyrazolo [3,4-c]pyridin-6-yl)pyrido[4,3-d]pyrimidin-7-yl]naphthalen-2-ol]
[1]
  IC50: 100 to 10000 nM
[2]
  IC50: 0.1 to 10 µM

## CC1(C#N)CCN(c2nc(OCC34CCCN3CCC4)nc3c(F)c(-c4cc(O)cc5ccccc45)ncc23)CC1 [Example 63, 1-[8-fluoro-2-(1,2,3,5,6,7-hexahydropyrrolizin-8-ylmethoxy)-7-(3-hydroxy-1-naphthyl)pyrido[4,3-d]pyrimidin-4-yl]-4-methyl-piperidine-4-carbonitrile]
[1]
  IC50: 100 to 10000 nM
[2]
  IC50: 0.1 to 10 µM

## CC(=O)OCCCNc1nc(OCC23CCCN2CCC3)nc2c(F)c(-c3cc(O)cc4ccccc34)ncc12 [Example 64, 3-[[8-fluoro-2-(1,2,3,5,6,7-hexahydropyrrolizin-8-ylmethoxy)-7-(3-hydroxy-1-naphthyl)pyrido[4,3-d]pyrimidin-4-yl]amino]propyl acetate]
[1]
  IC50: 100 to 10000 nM
[2]
  IC50: 0.1 to 10 µM

## Oc1cc(-c2ncc3c(N4CC5CC4CC5O)nc(OCC45CCCN4CCC5)nc3c2F)c2ccccc2c1 (stereo not drawn) [Example 66, 2-[8-fluoro-2-(1,2,3,5,6,7-hexahydropyrrolizin-8-ylmethoxy)-7-(3-hydroxy-1-naphthyl)pyrido[4,3-d]pyrimidin-4-yl]-2-azabicyclo[2.2.1] heptan-5-ol]
[1]
  IC50: 100 to 10000 nM
[2]
  IC50: 0.1 to 10 µM

## NS(=O)(=O)CCCNc1nc(OCC23CCCN2CCC3)nc2c(F)c(-c3cc(O)cc4ccccc34)ncc12 [Example 67]
[1]
  IC50: 100 to 10000 nM
[2]
  IC50: 0.1 to 10 µM

## CC1CN(c2nc(OCC34CCCN3CCC4)nc3c(F)c(-c4cc(O)cc5ccccc45)ncc23)CCC1O (stereo not drawn) [Example 68, 1-[8-fluoro-2-(1,2,3,5,6,7-hexahydropyrrolizin-8-ylmethoxy)-7-(3-hydroxy-1-naphthyl)pyrido[4,3-d]pyrimidin-4-yl]-3-methyl-piperidin-4-ol]
[1]
  IC50: 100 to 10000 nM
[2]
  IC50: 0.1 to 10 µM

## CC1CC(O)CCN1c1nc(OCC23CCCN2CCC3)nc2c(F)c(-c3cc(O)cc4ccccc34)ncc12 (stereo not drawn) [Example 69, 1-[8-fluoro-2-(1,2,3,5,6,7-hexahydropyrrolizin-8-ylmethoxy)-7-(3-hydroxy-1-naphthyl)pyrido[4,3-d]pyrimidin-4-yl]-2-methyl-piperidin-4-ol]
[1]
  IC50: 10 to 100 nM
[2]
  IC50: 0.1 to 10 µM

## Oc1cc(-c2ncc3c(N4CC5CC(C4)C5O)nc(OCC45CCCN4CCC5)nc3c2F)c2ccccc2c1 (stereo not drawn) [Example 71, 3-[8-fluoro-2-(1,2,3,5,6,7-hexahydropyrrolizin-8-ylmethoxy)-7-(3-hydroxy-1-naphthyl)pyrido[4,3-d]pyrimidin-4-yl]-3-azabicyclo[3.1.1] heptan-6-ol]
[1]
  IC50: 100 to 10000 nM
[2]
  IC50: 0.1 to 10 µM

## Oc1cc(-c2ncc3c(N4CCC5CCC(C4)O5)nc(OCC45CCCN4CCC5)nc3c2F)c2ccccc2c1 (stereo not drawn) [Example 80, 4-[8-fluoro-2-(1,2,3,5,6,7-hexahydropyrrolizin-8-ylmethoxy)-4-(9-oxa-3-azabicyclo[4.2.1]nonan-3-yl)pyrido [4,3-d]pyrimidin-7-yl]naphthalen-2-ol]
[1]
  IC50: 100 to 10000 nM
[2]
  IC50: 0.1 to 10 µM

## Fc1c(-c2cccc3[nH]ncc23)ncc2c(N3CCCOCC3)nc(OCC34CCCN3CCC4)nc12 [Example 92, 4-[8-fluoro-2-(1,2,3,5,6,7-hexahydropyrrolizin-8-ylmethoxy)-7-(1H-indazol-4-yl)pyrido[4,3-d]pyrimidin-4-yl]-1,4-oxazepane]
[1]
  IC50: 100 to 10000 nM
[2]; [3]
  IC50: > 10 µM

## Nc1nc2c(-c3ncc4c(N5CCCOCC5)nc(OCC56CCCN5CCC6)nc4c3F)cccc2s1 [Example 93, 4-[8-fluoro-2-(1,2,3,5,6,7-hexahydropyrrolizin-8-ylmethoxy)-4-(1,4-oxazepan-4-yl)pyrido[4,3-d]pyrimidin-7-yl]-1,3-benzothiazol-2-amine]
[1]
  IC50: 100 to 10000 nM
[2]
  IC50: 0.1 to 10 µM

## Fc1c(-c2cccc3[nH]ncc23)ncc2c(N3CCCOCC3)nc(OC[C@@]34CCCN3C[C@H](F)C4)nc12 [Example 95, 4-[8-fluoro-7-(1H-indazol-4-yl)-2-[[trans-2-fluoro-1,2,3,5,6,7-hexahydropyrrolizin-8-yl]methoxy]pyrido[4,3-d]pyrimidin-4-yl]-1,4-oxazepane]
[1]
  IC50: 100 to 10000 nM
[2]; [3]
  IC50: > 10 µM
